Experiments:
Type in all cases: cell-based
[1] = biological target: T1, human muscle nicotinic acetylcholine receptor (nAChR), adult form, (α1)2β1δε (Homo sapiens, UniProt P02708+Q04844+Q07001, P02708:V275M); assay: Fluo-4 Ca2+ flux, FLIPR
T1 construct: gene CHRNA1; full-length untagged subunits; CMV-alpha1 plasmid plus EF1alpha beta1-delta-epsilon triple plasmid, transient in HEK293; heteropentamer; with Acetylcholine receptor subunit beta
From the text: (§1) Fluo-4 Ca2+ flux, FLIPR on human muscle nicotinic acetylcholine receptor (nAChR), adult form, (α1)2β1δε

[2] = biological target: T2, human muscle nicotinic acetylcholine receptor (nAChR), adult form, (α1)2β1δε (Homo sapiens, UniProt P02708+Q04844+Q07001); assay: Fluo-4 Ca2+ flux, FLIPR; conditions: read-out: α1-Wt / EC50
T2 construct: gene CHRNA1; full-length untagged subunits; CMV-alpha1 plasmid plus EF1alpha beta1-delta-epsilon triple plasmid, transient in HEK293; heteropentamer; with Acetylcholine receptor subunit beta
From the text: as §1

[3] = biological target: T3, human muscle nicotinic acetylcholine receptor (nAChR), adult form, (α1)2β1δε (Homo sapiens, UniProt P02708+Q04844+Q07001, P02708:Y233H); assay: Fluo-4 Ca2+ flux, FLIPR
T3 construct: gene CHRNA1; full-length untagged subunits; CMV-alpha1 plasmid plus EF1alpha beta1-delta-epsilon triple plasmid, transient in HEK293; heteropentamer; with Acetylcholine receptor subunit beta
From the text: as §1

[4] = biological target: T4, human muscle nicotinic acetylcholine receptor (nAChR), adult form, (α1)2β1δε (Homo sapiens, UniProt P02708+Q04844+Q07001, P02708:Y233N); assay: Fluo-4 Ca2+ flux, FLIPR
T4 construct: gene CHRNA1; full-length untagged subunits; CMV-alpha1 plasmid plus EF1alpha beta1-delta-epsilon triple plasmid, transient in HEK293; heteropentamer; with Acetylcholine receptor subunit beta
From the text: as §1

[5] = biological target: T2, human muscle nicotinic acetylcholine receptor (nAChR), adult form, (α1)2β1δε; assay: Fluo-4 Ca2+ flux, FLIPR, inhibition of epibatidine response
Target sequence in this assay (P02708 21-457): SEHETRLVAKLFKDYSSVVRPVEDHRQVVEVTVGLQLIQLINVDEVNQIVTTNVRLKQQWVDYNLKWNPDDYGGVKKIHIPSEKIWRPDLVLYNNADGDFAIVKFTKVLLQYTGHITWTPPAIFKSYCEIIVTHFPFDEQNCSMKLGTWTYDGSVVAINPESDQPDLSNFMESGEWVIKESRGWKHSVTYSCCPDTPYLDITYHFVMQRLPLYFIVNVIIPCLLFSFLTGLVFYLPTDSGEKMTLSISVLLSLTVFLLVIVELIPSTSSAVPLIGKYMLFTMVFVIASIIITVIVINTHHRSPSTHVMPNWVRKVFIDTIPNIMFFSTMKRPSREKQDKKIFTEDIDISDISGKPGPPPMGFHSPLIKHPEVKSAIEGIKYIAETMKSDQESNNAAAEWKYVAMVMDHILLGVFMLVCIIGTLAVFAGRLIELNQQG
Target sequence in this assay (Q07001 22-517): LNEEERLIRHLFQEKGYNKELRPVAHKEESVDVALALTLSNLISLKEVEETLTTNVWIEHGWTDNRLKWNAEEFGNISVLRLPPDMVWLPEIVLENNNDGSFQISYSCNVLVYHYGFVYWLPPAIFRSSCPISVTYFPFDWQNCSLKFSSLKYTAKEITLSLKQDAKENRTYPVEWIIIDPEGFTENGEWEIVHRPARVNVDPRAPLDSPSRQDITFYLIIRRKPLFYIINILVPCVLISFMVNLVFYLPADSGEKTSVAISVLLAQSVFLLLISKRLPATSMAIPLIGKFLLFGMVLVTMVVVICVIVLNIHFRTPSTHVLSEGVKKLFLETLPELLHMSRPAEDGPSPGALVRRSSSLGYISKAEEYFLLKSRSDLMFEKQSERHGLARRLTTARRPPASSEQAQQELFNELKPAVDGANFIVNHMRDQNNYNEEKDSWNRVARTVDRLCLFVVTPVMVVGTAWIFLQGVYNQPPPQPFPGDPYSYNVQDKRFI
Target sequence in this assay (Q04844 21-493): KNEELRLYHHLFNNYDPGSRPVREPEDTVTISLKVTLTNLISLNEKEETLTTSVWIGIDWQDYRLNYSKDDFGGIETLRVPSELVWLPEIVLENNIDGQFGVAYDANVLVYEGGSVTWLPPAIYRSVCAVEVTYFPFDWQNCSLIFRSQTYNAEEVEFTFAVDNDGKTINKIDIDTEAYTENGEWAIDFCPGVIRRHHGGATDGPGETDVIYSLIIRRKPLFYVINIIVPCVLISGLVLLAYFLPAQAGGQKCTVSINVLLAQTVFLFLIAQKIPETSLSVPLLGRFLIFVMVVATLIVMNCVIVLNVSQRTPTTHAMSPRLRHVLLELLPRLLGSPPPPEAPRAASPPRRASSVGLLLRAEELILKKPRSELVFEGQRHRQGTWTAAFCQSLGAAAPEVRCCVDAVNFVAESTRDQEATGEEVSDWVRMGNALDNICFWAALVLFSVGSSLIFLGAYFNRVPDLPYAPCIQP
Target sequence in this assay (P11230 24-501 partner): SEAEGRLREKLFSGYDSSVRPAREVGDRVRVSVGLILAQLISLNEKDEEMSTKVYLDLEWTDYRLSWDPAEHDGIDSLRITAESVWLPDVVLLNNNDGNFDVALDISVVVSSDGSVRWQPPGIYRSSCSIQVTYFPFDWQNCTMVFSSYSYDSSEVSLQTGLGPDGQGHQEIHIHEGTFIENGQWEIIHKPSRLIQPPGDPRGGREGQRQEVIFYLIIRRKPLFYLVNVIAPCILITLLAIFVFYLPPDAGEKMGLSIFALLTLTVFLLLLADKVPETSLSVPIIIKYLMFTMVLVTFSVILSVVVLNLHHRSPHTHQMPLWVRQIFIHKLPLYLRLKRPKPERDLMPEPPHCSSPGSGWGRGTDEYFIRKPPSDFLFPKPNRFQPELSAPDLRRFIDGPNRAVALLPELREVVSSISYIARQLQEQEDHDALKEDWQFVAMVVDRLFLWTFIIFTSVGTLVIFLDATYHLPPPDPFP

Compound	EC50 [1]	EC50 [2]	EC50 [3]	EC50 [4]	IC50 [5]
O=c1cccc2n1C[C@@H]1CNC[C@H]2C1 [Cytisine]	592 ± 153 nM	2350 ± 367 nM	650 ± 93 nM	1180 ± 76 nM	
C[N+]1(C)CCN(c2ccccc2)CC1 [DMPP]	67 ± 15 nM	1630 ± 203 nM	161 ± 10 nM	705 ± 22 nM	
CN1CCC[C@H]1c1cccnc1 [Nicotine]	557 ± 226 nM	3650 ± 1040 nM	1390 ± 117 nM	1380 ± 96 nM	
COc1cc2c3cc1Oc1cc(ccc1O)C[C@@H]1c4c(cc(OC)c(O)c4Oc4ccc(cc4)C[C@@H]3N(C)CC2)CC[N+]1(C)C [tubocurarine]					3200 ± 2400 nM

From article PMC5029940, “High Throughput Random Mutagenesis and Single Molecule Real Time Sequencing of the Muscle Nicotinic Acetylcholine Receptor” (PLoS ONE, 2016)
